Measured values: patent publication US20120101136A1, “5-MEMBERED HETEROARYL DERIVATIVES USED AS SPHINGOSINE 1- PHOSPHATE RECEPTOR AGONISTS” (GLAXO GROUP LIMITED, priority 2009, published 2012)

molecular target: T1, S1P1 receptor (human Endothelial Differentiation Gene 1 (EDG1)) (Homo sapiens, UniProt P21453); assay: S1P1 Tango Assay - 384 Well Format (EDG1-bla/U2OS cells); format: cell-based; conditions: agonist, beta-lactamase reporter
T1 construct: TEV protease site; Gal4-VP16 transcription factor; expressed in transfected cells; host or cells: Tango GPCR-bla U2OS parental cell line (EDG1-bla/U2OS)
T1 sequence (P21453 whole entry, the tested form may be a part): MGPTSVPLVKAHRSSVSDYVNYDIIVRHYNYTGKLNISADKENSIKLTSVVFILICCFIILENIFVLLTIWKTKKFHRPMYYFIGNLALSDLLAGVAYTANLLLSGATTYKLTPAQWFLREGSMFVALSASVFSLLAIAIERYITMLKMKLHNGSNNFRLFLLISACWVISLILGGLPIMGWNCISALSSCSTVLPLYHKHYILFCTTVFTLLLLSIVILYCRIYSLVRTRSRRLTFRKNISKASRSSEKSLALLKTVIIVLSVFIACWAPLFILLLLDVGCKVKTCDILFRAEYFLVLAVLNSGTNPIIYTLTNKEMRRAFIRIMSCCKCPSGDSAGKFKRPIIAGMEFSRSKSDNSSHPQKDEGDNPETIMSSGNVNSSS
Description: Recombinant EDG1-bla/U2OS cells (contain the human Endothelial Differentiation Gene 1 (EDG1) linked to a TEV protease site and a Gal4-VP16 transcription factor stably integrated into the Tango GPCR-bla U2OS parental cell line) were harvested from growth medium and passaged into assay medium (Invitrogen Freestyle Expression Medium). The cells were starved for 24 hours at 37° C., 5% CO2, harvested and resuspended in assay medium at a density of ˜200,000 cells/ml.
All test compounds were dissolved in DMSO at a concentration of 10 mM and were prepared in 100% DMSO to provide 10 point dose response curves. Test compounds prepared by Bravo (Velocity 11) were added to wells in columns 2-11 and 13-22; DMSO was added to wells in columns 12 and 23 as unstimulated controls and assay medium was added to wells in columns 1 and 24 as cell-free controls. An S1P1 agonist was added to wells in row 2, columns 2-11 as stimulated controls and test compounds were added to wells in row 2, columns 13-22 and rows 3-15, columns 2-11/13-22 (row 1 and 16 were empty and not used). Compounds in solution were added to the assay plate (Greiner 781090) using an Echo (Labcyte) dose-response program (50 nl/well). The unstimulated and cell-free controls were loaded with 50 nl/well pure DMSO to ensure that the DMSO concentration was constant across the plate for all assays.
50 μl of the cell suspension was added to each well in columns 2-23 of the plate (˜10,000 cells per well). 50 μl of assay medium was added to each well in the cell-free controls (columns 1 and 24). The cells were incubated overnight at 37° C./5% CO2.
10 μl of 6× substrate mixture (LiveBLAzer™-FRET B/G substrate (CCF4-AM) Cat # K1096 from Invitrogen, Inc.) was added to each well using Bravo and the plates incubated at room temperature for 2 h in the dark. The plate was finally read on EnVision using one excitation channel (409 nm) and two emission channels (460 nm and 530 nm).
The blue/green emission ratio (460 nm/530 nm) was calculated for each well, by dividing the background-subtracted Blue emission values by the background-subtracted Green emission values. The dose response curve is based on sigmoidal dose-response model. All ratio data was normalized based upon the maximum emission ratio of positive control and minimum emission ratio of negative control (DMSO) on each plate. The intrinsic activity (IA) of each compound would be the normalized percentage of its maximum response after curve fitting.

Compound	EC50
CCc1cc(OCCCC(=O)O)ccc1-c1nnc(-c2ccc(OC(C)C)c(C#N)c2)s1 [Example 16, 4-{[4-(5-{3-cyano-4-[(1-methylethyl)oxy]phenyl}-1,3,4-thiadiazol-2-yl)-3-ethylphenyl]oxy}butanoic acid]	≤ 1 nM
CNCCOc1ccc(-c2noc(-c3ccc(OC(C)C)c(Cl)c3)n2)c(C)c1 [Example 5, 2-{[4-(5-{3-Chloro-4-[(1-methylethyl)oxy]phenyl}-1,2,4-oxadiazol-3-yl)-3-methylphenyl]oxy}-N-methylethanamine]	≤ 10 nM
Cc1cc(OCCCCC(=O)O)ccc1-c1noc(-c2ccc(OC(C)C)c(Cl)c2)n1 [Example 2, 5-{[4-(5-{3-Chloro-4-[(1-methylethyl)oxy]phenyl}-1,2,4-oxadiazol-3-yl)-3-methylphenyl]oxy}pentanoic acid]	≤ 1 nM
CCc1cc(OCC(=O)O)ccc1-c1noc(-c2ccc(OC(C)C)c(Cl)c2)n1 [Example 28, {[4-(5-{3-chloro-4-[(1-methylethyl)oxy]phenyl}-1,2,4-oxadiazol-3-yl)-3-ethylphenyl]oxy}acetic acid]	≤ 1 nM
CCc1cc(OCCCNC)ccc1-c1noc(-c2ccc(OC(C)C)c(Cl)c2)n1 [Example 35, (3-{[4-(5-{3-chloro-4-[(1-methylethyl)oxy]phenyl}-1,2,4-oxadiazol-3-yl)-3-ethylphenyl]oxy}propyl)methylamine]	≤ 10 nM
CC(C)Oc1ccc(-c2nc(-c3ccc(OCCCCC(=O)O)cc3Cl)no2)cc1C#N [Example 7, 5-{[3-Chloro-4-(5-{3-cyano-4-[(1-methylethyl)oxy]phenyl}-1,2,4-oxadiazol-3-yl)phenyl]oxy}pentanoic acid]	≤ 0.1 nM
CCc1cc(OCCCCNC)ccc1-c1noc(-c2ccc(OC(C)C)c(Cl)c2)n1 [Example 34, (4-{[4-(5-{3-chloro-4-[(1-methylethyl)oxy]phenyl}-1,2,4-oxadiazol-3-yl)-3-ethylphenyl]oxy}butyl)methylamine]	≤ 100 nM
CCCNCCCCOc1ccc(-c2noc(-c3ccc(OC(C)C)c(C#N)c3)n2)c(Cl)c1 [Example 19, 5-[3-(2-chloro-4-{[4-(propylamino)butyl]oxy}phenyl)-1,2,4-oxadiazol-5-yl]-2-[(1-methylethyl)oxy]benzonitrile]	≤ 10 nM
CNCCOc1ccc(-c2noc(-c3ccc(OC(C)C)c(C#N)c3)n2)c(Cl)c1 [Example 36, 5-[3-(2-chloro-4-{[2-(methylamino)ethyl]oxy}phenyl)-1,2,4-oxadiazol-5-yl]-2-[(1-methylethyl)oxy]benzonitrile]	≤ 1 nM
Cc1cc(OCC(=O)O)ccc1-c1noc(-c2ccc(OC(C)C)c(Cl)c2)n1 [Example 3, {[4-(5-{3-Chloro-4-[(1-methylethyl)oxy]phenyl}-1,2,4-oxadiazol-3-yl)-3-methylphenyl]oxy}acetic acid]	≤ 1 nM
CCc1cc(OCCCCNC)ccc1-c1noc(-c2ccc(OC(C)C)c(C#N)c2)n1 [Example 38, 5-[3-(2-ethyl-4-{[4-(methylamino)butyl]oxy}phenyl)-1,2,4-oxadiazol-5-yl]-2-[(1-methylethyl)oxy]benzonitrile]	≤ 10 nM
CCc1cc(OCCCC(=O)O)ccc1-c1nsc(-c2ccc(OC(C)C)c(C#N)c2)n1 [Example 42, 4-{[4-(5-{3-cyano-4-[(1-methylethyl)oxy]phenyl}-1,2,4-thiadiazol-3-yl)-3-ethylphenyl]oxy}butanoic acid]	≤ 10 nM
Cc1cc(OCCCC(=O)O)ccc1-c1noc(-c2ccc(OC(C)C)c(Cl)c2)n1 [Example 1, 4-{[4-(5-{3-Chloro-4-[(1-methylethyl)oxy]phenyl}-1,2,4-oxadiazol-3-yl)-3-methylphenyl]oxy}butanoic acid]	≤ 0.1 nM
CC(C)Oc1ccc(-c2nc(-c3ccc(OCC(=O)O)cc3Cl)no2)cc1C#N [Example 9, {[3-Chloro-4-(5-{3-cyano-4-[(1-methylethyl)oxy]phenyl}-1,2,4-oxadiazol-3-yl)phenyl]oxy}acetic acid]	≤ 10 nM
